The target of data set [1] is T1, Serine/threonine-protein kinase Chk1 (Homo sapiens, UniProt O14757).
T1 sequence (O14757 whole entry): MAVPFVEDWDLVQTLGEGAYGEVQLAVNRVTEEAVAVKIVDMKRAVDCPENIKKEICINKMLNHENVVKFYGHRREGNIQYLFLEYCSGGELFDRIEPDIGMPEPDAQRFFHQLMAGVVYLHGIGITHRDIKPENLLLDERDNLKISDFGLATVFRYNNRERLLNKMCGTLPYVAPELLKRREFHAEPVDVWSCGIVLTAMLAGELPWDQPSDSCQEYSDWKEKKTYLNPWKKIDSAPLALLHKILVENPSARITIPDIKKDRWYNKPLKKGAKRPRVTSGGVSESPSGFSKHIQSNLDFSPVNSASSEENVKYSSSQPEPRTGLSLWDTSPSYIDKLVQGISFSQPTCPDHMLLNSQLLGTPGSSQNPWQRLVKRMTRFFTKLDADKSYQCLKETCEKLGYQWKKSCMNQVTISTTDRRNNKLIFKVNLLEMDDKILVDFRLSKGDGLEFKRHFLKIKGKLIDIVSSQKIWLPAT
Briefly: Inhibition of human CHEK1.

A short description of data set [2]: Half life in dog at 0.25 mg/kg, iv. Format: ADME, organism-based, Canis lupus familiaris. Further details: dose 0.25 mg/kg, route intravenous. The note with it: in vivo.
Data set [3] is described as follows: Clearance in dog at 0.25 mg/kg, iv. Format: ADME, organism-based, Canis lupus familiaris. Further details: dose 0.25 mg/kg, route intravenous. The note with it: in vivo.
A short description of data set [4]: Partition coefficient, log P of the compound. Format: physicochemical. Particulars: octanol/water.

In data set [1], `O=c1[nH]c2ccc(-n3ccnc3)cc2cc1-c1cc2cc(CN3CCCCC3)ccc2[nH]1` showed an IC50 of 4.3 nM. Take `NCC1CCN(Cc2ccc3[nH]c(-c4cc5cc(C(N)=O)ccc5[nH]c4=O)cc3c2)CC1`: the midpoint of inhibition in data set [1], the IC50, lay at 0.7 nM. `O=c1[nH]c2ccc(-c3cn[nH]c3)cc2cc1-c1cc2cc(CN3CCOCC3)ccc2[nH]1`: the IC50 in data set [1] was found to be 0.83 nM. For the same molecule, the half-life in data set [2] was 120 min. Besides, the clearance in data set [3] was found to be 34 mL/min/kg.

For the molecule `CC(=O)N1CCN(Cc2ccc3[nH]c(-c4cc5cc(-c6cn[nH]c6)ccc5[nH]c4=O)cc3c2)CC1`, the midpoint of inhibition in data set [1], the IC50, lay at 2.5 nM. Besides, the half-life in data set [2] was 90 min. The molecule further gave a clearance in data set [3] of 27 mL/min/kg. In turn, `O=c1[nH]c2ccc(-c3cccc(O)c3)cc2cc1-c1cc2cc(CN3CCCCC3)ccc2[nH]1` returned an IC50 in data set [1] of 29 nM. As for `COc1cc(-c2ccc3[nH]c(=O)c(-c4cc5cc(CN6CCCCC6)ccc5[nH]4)cc3c2)ccc1O`, the IC50 in data set [1] worked out at 20 nM. Same read-out and setting: to `N#Cc1ccc2cc(-c3cc4cc(CN5CCC(CN)CC5)ccc4[nH]3)c(=O)[nH]c2c1` belongs 190 nM. In data set [1], `O=c1[nH]c2ccc(-c3cn[nH]c3)cc2cc1-c1cc2cc(CN3CCC(F)CC3)ccc2[nH]1` yielded an IC50 of 1 nM. Moreover, in data set [2], the half-life is 150 min. For the same molecule, the clearance in data set [3] was determined as 22 mL/min/kg. `CC(=O)N1CCN(Cc2ccc3[nH]c(-c4cc5cc(-c6cnn(C)c6)ccc5[nH]c4=O)cc3c2)CC1`: the IC50 in data set [1] amounted to 3 nM. The molecule also had a half-life in data set [2] of 246 min. The clearance in data set [3] worked out at 6.5 mL/min/kg.

`O=c1[nH]c2ccc(-n3ccnn3)cc2cc1-c1cc2cc(CN3CCCCC3)ccc2[nH]1` displayed an IC50 in data set [1] of 0.74 nM.

In data set [1], `NC(=O)c1ccc2[nH]c(=O)c(-c3cc4cc(CN5CCCCC5)ccc4[nH]3)cc2c1` registered an IC50 of 0.34 nM. `O=c1[nH]c2ccc(-c3cc[nH]n3)cc2cc1-c1cc2cc(CN3CCCCC3)ccc2[nH]1` returned an IC50 in data set [1] of 5.6 nM. The same measure, in the same setting: next, `O=c1[nH]c2ccc(-c3cnsc3)cc2cc1-c1cc2cc(CN3CCCCC3)ccc2[nH]1`: 0.64 nM; `Cn1nnc(-c2ccc3[nH]c(=O)c(-c4cc5cc(CN6CCCCC6)ccc5[nH]4)cc3c2)n1`: 6.4 nM; `O=c1[nH]c2ccccc2cc1-c1cc2ccccc2[nH]1`: 1000 nM. The same measure, in the same setting: next, `N#Cc1cccc2[nH]c(=O)c(-c3cc4cc(CN5CCC(CN)CC5)ccc4[nH]3)cc12`: 580 nM; `N#Cc1ccc2[nH]c(=O)c(-c3cc4cc(CN5CCC(CN)CC5)ccc4[nH]3)cc2c1`: 4 nM; `O=c1[nH]c2ccc(Br)cc2cc1-c1cc2cc(CN3CCCCC3)ccc2[nH]1`: 2.9 nM. Turning to `Cn1cc(-c2ccc3[nH]c(=O)c(-c4cc5cc(CN6CCCCC6)ccc5[nH]4)cc3c2)cn1`, inhibition in data set [1] was half-maximal at 1.1 nM (IC50). The same measure, in the same setting: to `O=c1[nH]c2ccc(-n3nccn3)cc2cc1-c1cc2cc(CN3CCCCC3)ccc2[nH]1` belongs 14 nM. `COCC(=O)N1CCN(Cc2ccc3[nH]c(-c4cc5cc(-c6cn[nH]c6)ccc5[nH]c4=O)cc3c2)CC1` showed an IC50 in data set [1] of 2.1 nM. The molecule also had a half-life in data set [2] of 120 min. Moreover, the clearance in data set [3] came to 23 mL/min/kg.

In the case of `O=c1[nH]c2ccc(-c3cn[nH]c3)cc2cc1-c1cc2cc(CN3CCCCC3)ccc2[nH]1`, the logP in data set [4] stood at 2.81. Further, the half-life in data set [2] is 264 min. For the same molecule, the clearance in data set [3] is 30 mL/min/kg.

On to `N#Cc1ccc2[nH]c(=O)c(-c3cc4cc(CN5CCCCC5)ccc4[nH]3)cc2c1`, for which, in data set [1], the IC50 amounted to 4.6 nM.

In general, IC50 refers to the concentration at which inhibition is half-maximal. A low value points to inhibition by little substance. By half-life is commonly meant the time needed for the level to fall by half in the phase considered. Broadly, the clearance is the volume of plasma or blood freed of the substance per unit of time. For orientation: logP means the decadic logarithm of the partition coefficient of the neutral form, usually between octanol and water.

The values above are taken from ChEMBL document CHEMBL1145296, “Development of 6-substituted indolylquinolinones as potent Chek1 kinase inhibitors” (Bioorg Med Chem Lett, 2006).
